Test results as given in US5681695A, “Method for increasing specificity in competitive immunoassays” (priority 1994, dated 1997).

Tests used:
anti-HBc [1] = test: CORAB radioimmunoassay for anti-HBc (competitive), with reducing agent added to the sample; format: binding, human; details: for inhibition in the Corab assay: presence of metabisulfite
Protocol: 0.1 ml samples in groups I and II were placed in duplicate reaction wells, along with negative and positive controls, and 10 ul of 0.3% 2-mercaptoethanol (2-ME) in H2 O was added to one each of the duplicates, while 10 ul H2 O was added to the other. 0.1 ml of ^125 I-labeled anti-HBc was added to all wells, followed by an HBcAg-coated 1/4 inch polystyrene bead to all wells. Trays were gently shaken and allowed to incubate overnight at room temperature. All beads were washed 3 times with distilled water and transferred to test tubes for counting for 1 minute in a gamma scintillation counter. The positivity or negativity of each was calculated, as was the degree (%) inhibition from negative control for each specimen both with and without reducing reagent according to the formula: [formula] By this calculation, a sample giving a value equal to or greater than 50% is judged as positive in the test. The effect of the addition of the reducing reagents to the specimens was evaluated by several criteria:
Plasma samples designated 25, 31, 76, 91, 177 and 189 were tested with a commercially available anti-HBc kit (Corab®, Abbott Laboratories, North Chicago, Ill.) with and without addition of 10 ul of a reducing agent, 0.5M sodium metabisulfite. Also, as in Example 4, samples were tested with and without addition of 26.3 ul of a positive anti-HBc sample (Panel 5). […] Samples 31 and 91 are discrepant samples which are confirmed as negative upon addition of the reducing agent.

anti-HBc [2] = test: Sephacryl S-300 fractions assayed for anti-HBc activity by microparticle assay, with cysteine; format: binding
Protocol: Briefly, 2 ml of recalcified Sample 209 was applied to a Sephacryl S-300 column (2.5×50 cm) equilibrated with PBS. 2.5 ml fractions were collected at a flow rate of 20 ml/hr. Fractions were assayed using the microparticle assay of Example 3 except that an approximately 5 fold increase in sensitivity was implemented by using increasing incubation time and decreasing the amount of anti-HBc conjugate. […] The first inhibitory peak was not detected when assayed in the presence of cysteine. The second and major inhibitory peak, which co-eluted with the IgG protein peak, was unaffected by cysteine treatment. The immunoglobulin G associated anti-HBc activity is specific for non-acute hepatitis B infection.
3 ml of a borderline positive sample (Sample 9) was tested according to the procedure of Example 9. […] In the absence of reducing agent, a single inhibitory peak was seen near the void volume of the column. This peak was not detected when assayed in the presence of cysteine, and was clearly resolved form the IgG protein peak. This non-IgG reactivity is not believed to be a result of Hepatitis B infection and is therefore nonspecific.

anti-HBc [3] = test: Microparticle chemiluminescence immunoassay for anti-HBc, with cysteine; format: binding, human
Protocol: Recombinant DNA hepatitis B core antigen (rHBcAg) was coupled to carboxylated polystyrene latex microparticles (Seragen Diagnostics, Indianapolis, Ind., 0.188 um) using a two-step procedure. First, purified polyclonal human anti-HBc at 2.7 ug/mg latex particles in the presence of normal human serum (1.0 ul/mg) was coupled using 1-ethyl-3-(3-dimethylaminopropyl) carbodiimide (EDAC, 43 ug/mg) in 0.015M MES buffer (2-[N-morpholino] ethanesulfonic acid), pH 4.8, for 2 hours at room temperature. Bangs, "Uniform Latex Particles", Seragen Diagnostics, 1984. The antibody undercoated particles were then washed three times in 0.1M Tris buffer, pH 7.2, containing 0.9% NaCl, 0.03% EDTA and 0.05% Tween-20 by centrifugation (40,000×g for 20 minutes) and resuspended in 0.1M Tris buffer, pH 7.2, containing 0.9% NaCl, 0.03% EDTA and 0.03% bovine serum albumin. rHBcAg (0.2 ug/mg) was then immunologically adsorbed on the undercoated particles by slow rotation overnight at room temperature. Particles were washed three times as before and dispersed through a 25 gauge needle and stored in 0.01M sodium phosphate, pH 7.2, containing 0.15M NaCl, 0.1% bovine serum albumin, 0.01% Tween-20 and 0.1% sodium azide (Microparticle Diluent). Percent solids was determined by light scattering at 500 nanometers. Coated particles were stored concentrated (typically 5-10% solids) and diluted in storage buffer to a working concentration (0.036%) before each assay. In an alternative method, rHBcAg was coupled directly to the microparticles by the EDAC method. The anti-HBc undercoating method is preferred.
Acridinium-labeled purified anti-HBc (human) was prepared using an EDAC coupling procedure on the active ester. Briefly, 1 mg of B-alanine acridinium was dissolved in 100 ul anhydrous DMF and activated by sequential addition of 50 ul N-hydroxylsuccinimide (NHS) (5.75 mg/ml) and 50 ul EDAC (19.2 mg/ml) (molar ratio NHS:EDAC=1:2). The reaction proceeded in the dark at room temperature for 30 minutes. Protein A purified human anti-HBc was dialyzed (3×) against PBS, 0.5% CHAPS, pH 6.3, overnight at 2°-8° C. Activated acridinium was added to dialyzed antibody (30:1 molar excess) and the reaction mixture stirred for 30 minutes at room temperature. After dialysis versus the same buffer, the preparation was centrifuged and the supernatant chromatographed on a Beckman TSK 250 HPLC column equilibrated with the same buffer. Individual fractions (1 ml) were analyzed by UV spectroscopy at 369 and 280 nm to determine incorparation of acridinium (typically 3:1).
100 ul duplicates of samples including a sensitivity panel sample (1.23 Paul Erhlich Units/ml, Panel 7), two samples, S9 and S14, which were similar in anti-HBc reactivity to Group II samples described above, and negative and positive controls were added to a microtiter plate. […] 50 ul of the HBcAg-coated microparticles (0.036% solids) were added to all wells. This reaction mixture was incubated for 20 minutes in a 40° water bath.
166 ul of each reaction mixture was transferred to a microparticle capture/flow-through glass fiber filter funnel (Abbott Laboratories, North Chicago, Ill.) which was prewetted with 50 ul of 0.1% Tween-20. Each capture membrane was then washed twice with 50 ul of 0.1% Tween-20. 20 ul of the acridinium-labeled anti-HBc (375 ng/ml) was added to the surface of each capture membrane and incubated at room temperature for 20 minutes. The capture membranes were then washed twice with 100 ul and once with 50 ul of 0.1% Tween-20.
The membranes were then transferred to a chemiluminescence reader where approximately 100 ul of a trigger solution comprising 0.3% H2 O2 in 0.25N NaOH was delivered to each membrane. The amount of light generated by the acridinium-labelled reagent bound to the microparticles was determined and is inversely proportional to the amount of anti-HBc present in the sample. […] There was a 10-20% signal loss in the negative control in the presence of cysteine. […]

## O=S([O-])S(=O)(=O)[O-].[Na+].[Na+] [MBS, sodium metabisulfite]
anti-HBc [1]; 10 ul 0.5M MBS, NC
  <cpm>: 20856 cpm
anti-HBc [1]; 10 ul 0.5M MBS, NC spiked with Panel 5
  % I (percent inhibition): 73.6%
anti-HBc [1]; 10 ul 0.5M MBS, PC
  <cpm>: 350 cpm
anti-HBc [1]; 10 ul 0.5M MBS, Panel 7
  % I (percent inhibition): 71.0%
anti-HBc [1]; 10 ul 0.5M MBS, mean of samples spiked with Panel 5
  <Sx*> % I: 74.8%
anti-HBc [1]; 10 ul 0.5M MBS, mean of unspiked samples
  <Sx> % I: 11.4%
anti-HBc [1]; 10 ul 0.5M MBS, sample OBI 25
  % I (percent inhibition): 7.6%
anti-HBc [1]; 10 ul 0.5M MBS, sample OBI 25 spiked with Panel 5
  % I (percent inhibition): 74.3%
anti-HBc [1]; 10 ul 0.5M MBS, sample OBI 31
  % I (percent inhibition): 10.4%
anti-HBc [1]; 10 ul 0.5M MBS, sample OBI 31 spiked with Panel 5
  % I (percent inhibition): 75.6%
anti-HBc [1]; 10 ul 0.5M MBS, sample OBI 76
  % I (percent inhibition): 5.8%
anti-HBc [1]; 10 ul 0.5M MBS, sample OBI 76 spiked with Panel 5
  % I (percent inhibition): 74.2%
anti-HBc [1]; 10 ul 0.5M MBS, sample OBI 91
  % I (percent inhibition): 10.8%
anti-HBc [1]; 10 ul 0.5M MBS, sample OBI 91 spiked with Panel 5
  % I (percent inhibition): 75.0%
anti-HBc [1]; 10 ul 0.5M MBS, sample OBI 177
  % I (percent inhibition): 31.5%
anti-HBc [1]; 10 ul 0.5M MBS, sample OBI 177 spiked with Panel 5
  % I (percent inhibition): 74.4%
anti-HBc [1]; 10 ul 0.5M MBS, sample OBI 189
  % I (percent inhibition): 2.5%
anti-HBc [1]; 10 ul 0.5M MBS, sample OBI 189 spiked with Panel 5
  % I (percent inhibition): 75.1%
anti-HBc [1]; Panel 7 and samples spiked with Panel 5
  effect on anti-HBc positive samples: not affected
anti-HBc [1]; Table I
  absolute values for negative and positive controls: not affected significantly
anti-HBc [1]; Sample 9
  inhibition in the Corab assay: 5.2%
anti-HBc [1]; Sample 209
  inhibition in the Corab assay: 86.3%

## N[C@@H](CS)C(=O)O [cysteine]
anti-HBc [2]; Sample 9, presence of cysteine
  single inhibitory peak near the void volume: not detected
anti-HBc [2]; Sample 209, cysteine treatment
  second and major inhibitory peak (co-eluted with IgG): unaffected
anti-HBc [2]; Sample 209, presence of cysteine
  first inhibitory peak: not detected
anti-HBc [3]; 200 mM cysteine solution (EDTA, DTT), Negative Control
  COUNTS: 23992 COUNTS
anti-HBc [3]; 200 mM cysteine solution (EDTA, DTT), Panel 7
  % I (percent inhibition): 76.3%
anti-HBc [3]; 200 mM cysteine solution (EDTA, DTT), Plasma S9
  % I (percent inhibition): 3.2%
anti-HBc [3]; 200 mM cysteine solution (EDTA, DTT), Plasma S14
  % I (percent inhibition): 3.0%
anti-HBc [3]; 200 mM cysteine solution (EDTA, DTT), Positive Control
  COUNTS: 5000 COUNTS
anti-HBc [3]; 10 ul 0.75M cysteine fresh, NC
  <cpm>: 20856 cpm
anti-HBc [3]; 10 ul 0.75M cysteine fresh, NC spiked with Panel 5
  % I (percent inhibition): 80.8%
anti-HBc [3]; 10 ul 0.75M cysteine fresh, PC
  <cpm>: 4035 cpm
anti-HBc [3]; 10 ul 0.75M cysteine fresh, Panel 7
  % I (percent inhibition): 80.7%
anti-HBc [3]; 10 ul 0.75M cysteine fresh, plasma samples spiked with Panel 5
  average percent inhibition: 71.5%
anti-HBc [3]; 10 ul 0.75M cysteine fresh, sample 52
  % I (percent inhibition): 6.2%
anti-HBc [3]; 10 ul 0.75M cysteine fresh, sample 52 spiked with Panel 5
  % I (percent inhibition): 67.9%
anti-HBc [3]; 10 ul 0.75M cysteine fresh, sample 71
  % I (percent inhibition): 36.0%
anti-HBc [3]; 10 ul 0.75M cysteine fresh, sample 71 spiked with Panel 5
  % I (percent inhibition): 69.9%
anti-HBc [3]; 10 ul 0.75M cysteine fresh, sample 166
  % I (percent inhibition): 54.0%
anti-HBc [3]; 10 ul 0.75M cysteine fresh, sample 166 spiked with Panel 5
  % I (percent inhibition): 80.8%
anti-HBc [3]; 10 ul 0.75M cysteine fresh, sample 189
  % I (percent inhibition): 11.1%
anti-HBc [3]; 10 ul 0.75M cysteine fresh, sample 189 spiked with Panel 5
  % I (percent inhibition): 70.5%
anti-HBc [3]; 10 ul 0.75M cysteine fresh, sample 277
  % I (percent inhibition): -2.5%
anti-HBc [3]; 10 ul 0.75M cysteine fresh, sample 277 spiked with Panel 5
  % I (percent inhibition): 68.6%
anti-HBc [3]; 10 ul 0.75M cysteine fresh, unspiked plasma samples
  average percent inhibition: 21.0%
anti-HBc [3]; Example 5, + cysteine reagent, Negative control
  mean counts: 24494 counts
anti-HBc [3]; Example 5, + cysteine reagent, Panel 5
  % I (percent inhibition): 86.7%
anti-HBc [3]; Example 5, + cysteine reagent, Panel 6
  % I (percent inhibition): 85.3%
anti-HBc [3]; Example 5, + cysteine reagent, Panel 7
  % I (percent inhibition): 77.2%
anti-HBc [3]; Example 5, + cysteine reagent, Panel 8
  % I (percent inhibition): 53.5%
anti-HBc [3]; Example 5, + cysteine reagent, Panel 9
  % I (percent inhibition): 21.0%
anti-HBc [3]; Example 5, + cysteine reagent, Positive control
  mean counts: 5678 counts
anti-HBc [3]; S9 and S14, presence of cysteine
  activity (interfering factor) in Group II type samples: eliminated
anti-HBc [3]; presence of cysteine
  signal loss in the negative control: 10-20%
